Assay [1] concerns Plasmodium yoelii nigeriensis. The format is in vivo. The following applies: for oocyst formation: mosquito feeding 1 hr after treatment (FIG. 1A), untreated control average 460 oocysts per mosquito. As for the experimental part:
Mice infected with Plasmodium yoelii nigeriensis were treated with drugs in different concentrations for various time periods and were exposed to mosquitoes. Oocysts were counted from dissected midgut 9-10 days after feeding. FIG. 1A, the number of oocysts from mosquitoes fed on mice treated with different TAA compounds for 1 hour. CAR, carbita Pentane (100 mg/kg); CHL, chlorpromazine (30 mg/kg); DEQ, dequalinium dichloride (10 mg/kg); Dox, doxipin hydrochloride (30 mg/kg); Ima, Imipramine (100 mg/kg), KET, ketotifen (100 mg/kg); Pro, protryptiline hydrochloride (10 mg/kg). FIG. 1B, the number of oocysts from mosquitoes fed on mice treated with different concentrations of ketotifen (KET) for 1 hour, compared with those treated with standard anti-malarial drugs, primaquine (PQ, 5 and 10 mg/kg), arteminisinin (ART, 5 mg/kg) and chloroquine (CQ, 10 mg/kg). FIG. 1C, the number of oocysts from mosquitoes fed on mice treated with a single dose of 0.5 mg/kg or 0.1 mg/kg of ketotifen (KET) for 1, 6 or 24 hours. FIG. 1D, the number of oocysts from mosquitoes fed on mice treated with two doses of 0.5 mg/kg or 0.1 mg/kg (filled symbol) of ketotifen (KET) for 1, 6 or 24 hours. CON, no drug control.
For testing transmission-blocking activity in vivo, CD-1 strain female mice, aged 6-8 weeks old, were infected intra-peritoneally (i.p.) with 5×106 P. yoelii nigeriensis. In a preliminary experiment, on day 3 post infection the animals were administrated i.p. a single dose of tricyclic antihistamine and antidepressants (TAA) compound or pharmaceutical-grade phosphate buffer saline (pH 7.4). Starting 1 hr after the administration of the TAA compound, the animals were anesthetized and brought into contact with a colony of Anopheles stephensimosquitoes. The mosquitoes were allowed to feed on the mice. Unfed or partially engorged mosquitoes were removed from the cages. The mosquitoes were maintained for 9-10 days 24 ±1° C. and 80-90% relative humidity. The gametocytocidal activity of the test compound was accessed on the basis of the oocyst counts in mosquitoes fed on treated animals and a control group. In subsequent experiments, the gametocytocidal action of ketotifin at different concentrations and doses was evaluated similarly. One group was given a single dose of 0.1, 0.5, 1, 5, 10, 30 or 60 mg/kg on day 3 post infection and subjected to mosquito feeding 1 hr after compound administration. Primaquine, chloroquine and arteminsin were used as reference drugs. The other group was given one dose or two doses of 0.1 or 0.5 mg/kg at 4 hr interval and subjected to mosquito feeding 1, 6 or 24 hrs after the final drug administration.

The subject of another assay is P. falciparum lines. As to the kind of experiment: qHTS SYBR Green Plasmodium proliferation assay in infected erythrocytes (seven parasite lines). It is filed as cell-based. The following applies: Erythrocyte, read-out: IC50, inhibition of proliferation in all parasite lines. As for the experimental part:
The P. falciparum lines used in this study have been described previously (Mu J, et al. Multiple transporters associated with malaria parasite responses to chloroquine and quinine. Mol Microbiol 2003;49:977-989). […] Briefly, 3 μl culture medium was dispensed into 1536-well black clear-bottom plates (Aurora Biotechnologies) using a Multidrop Combi (Thermo Fisher Scientific Inc.); 23-nL compounds in DMSO were added by a pin tool (Kalypsys), and 5 μl of P. falciparum-infected RBCs (0.3% parasitemia, 2.5% hematocrit final concentration) were added. The plates were incubated at 37° C. in a humidified incubator in 5% CO2 for 72 h, and 2 μl lysis buffer (20 mM Tris-HCl, 10 mM EDTA, 0.16% saponin, 1.6% triton-X, 10× SYBR Green I supplied as 10,000× final concentration by Invitrogen) was added to each well. The plates were mixed for 25 sec with gentle shaking and incubated overnight at room temperature in the dark. The following morning, fluorescence intensity at 485 (14) nm excitation and 535 (25) nm emission wavelengths was measured on an En Vision (Perkin Elmer) plate reader. […] The plates were incubated at 37° C. under 5% CO2, 5% 02, and 90% N2 for 72 h, incubated for another 30 min after addition of 50 μl lysis buffer, and read in a FLUOstar OPTIMA reader (BMG Labtech). Data were analyzed using software at the NIAID Bioinformatic Resources (niaid-biocluster.niaid.nih.gov/cgi-bin/bipod2/index.cgi). Parasite proliferation was measured after 72 hr of incubation (corresponding to 1.5 generations of intra-erythrocytic parasite growth), with each compound tested at seven or eight five-fold dilutions beginning at 29 μM. […] The potencies of known antimalarial agents had similar values determined by the assay in 96-well plate format. […] Although the determined potencies of 4 were lower, the relative potency between lines sensitive to 4, HB3, 3D7, and D10 were clearly distinguished from resistant lines. […] The potencies of compounds scored as active or inconclusive in both replicates correlated well indicating good repeatability in determining IC50 values between replicates.
On the technique in general: qHTS replaces the single test concentration by a dilution series.

Assay [2] has as its system P. falciparum gametocytes. As to the kind of experiment: killing of P. falciparum gametocytes in vitro. The format is cell-based, Plasmodium falciparum.
Setting [3] is: all seven parasite lines, 72 h incubation.
Where [4] appears, read: 5 mg/kg single dose, treatment for 1 hr.
Where [5] appears, read: two doses of 0.5 mg/kg at 4 hours interval, 24-hour treatment.

pIC50: −log10 of the molar value. Counter-ions that a name gives are not always drawn. Like-named read-outs stand apart in the source and are kept apart here. Bounds are passed on as bounds.

Take `CNCCCC1c2ccccc2C=Cc2ccccc21` [protryptiline hydrochloride]: in assay [1] (10 mg/kg single dose i.p.), the oocyst formation entry is “strong reduction in oocyst formation”.
Take `Cc1cc(N)c2ccccc2[n+]1CCCCCCCCCC[n+]1c(C)cc(N)c2ccccc21` [dequalinium dichloride]: the pIC50 in the assay with P. falciparum lines (setting [3]) was above 5.70.
The same measure, in the same setting: the same measure for `CC(=O)O[C@H]1C(=O)[C@@]2(C)[C@H]([C@H](OC(=O)c3ccccc3)[C@]3(O)C[C@H](OC(=O)[C@H](O)[C@@H](NC(=O)c4ccccc4)c4ccccc4)C(C)=C1C3(C)C)[C@]1(OC(C)=O)CO[C@@H]1C[C@@H]2O` [taxol]: above 5.70.
As to `CCN(CC)CCCC(C)Nc1c2ccc(Cl)cc2nc2ccc(OC)cc12` (stereo not shown) [quinacrine], in the assay on P. falciparum lines (72 h), the pIC50 was above 5.70.
For `COc1cc(NC(C)CCCN)c2ncccc2c1` (stereo not shown) [primaquine], in assay [1] (setting [4]), the “mosquitoes that had oocysts” value is recorded as 7 of 21 and the oocyst counts stood at 6 oocysts per mosquito.
On to `CN1CCC(=C2c3ccccc3CC(=O)c3sccc32)CC1` [ketotifen], for which, in assay [1] (1 mg/kg single dose, treatment for 1 hr (FIG. 1B)), the “average number of oocysts per mosquito” value was found to be 34 oocysts per mosquito. Also, the “mosquitoes that had oocysts” value in assay [1] (setting [4]) is reported as 2 of 44; in assay [1] (setting [5]), 4 of 23. Further, the oocyst counts in assay [1] (setting [4]) was found to be 0.13 oocysts per mosquito; in assay [1] (single dose 0.1 mg/kg, 24 hours prior to mosquito feeding (FIG. 1C)) it was 82 oocysts per mosquito; in assay [1] (single dose 0.5 mg/kg, 24 hours prior to mosquito feeding (FIG. 1C)), 12 oocysts per mosquito; in assay [1] (two doses of 0.1 mg/kg at 4 hours interval, 24-hour treatment time (FIG. 1D)) it was 80 oocysts per mosquito; in assay [1] (two doses of 0.5 mg/kg at 4 hours interval, 24-hour treatment (FIG. 1D)) it was 2 oocysts per mosquito. For the same compound, in assay [1] (5 mg/kg single dose, treatment for 1 hr (FIG. 1B)), the oocyst development result is listed as “almost completely blocked oocyst development”. In addition, in assay [1] (100 mg/kg single dose i.p.), the oocyst formation result is “strong reduction in oocyst formation”. Moreover, the “dose achieving similar reduction in oocyst count to primaquine, as share of the primaquine dose” value in assay [1] (relative to primaquine dose) came out at 10%. For the same compound, the “oocysts in the mosquitoes” value in assay [1] (setting [5]) is on record as “almost completely eliminated oocysts”. The “concentration that completely kills P. falciparum gametocytes in vitro” value in assay [2] came to 0.5 µM.
